The values below come from patent publication US7786152B2, “Compound” (priority 2002, dated 2010).

The structures appear in SMILES notation.

T1 sequence (P28845 whole entry): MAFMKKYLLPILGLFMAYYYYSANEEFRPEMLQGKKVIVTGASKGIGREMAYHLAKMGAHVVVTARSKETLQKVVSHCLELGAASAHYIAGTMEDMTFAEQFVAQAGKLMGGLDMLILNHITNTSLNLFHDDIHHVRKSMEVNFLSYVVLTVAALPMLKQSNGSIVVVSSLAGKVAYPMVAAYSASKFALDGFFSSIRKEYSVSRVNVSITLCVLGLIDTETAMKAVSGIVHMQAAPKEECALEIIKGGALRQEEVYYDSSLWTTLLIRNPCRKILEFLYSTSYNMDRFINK

The assay has as its target T1, Human 11βHSD1 (Homo sapiens, UniProt P28845).
T1 construct: the enzyme source, native hepatic enzyme compared to recombinant enzyme; tissue XenoTech H0610/Lot 0210078; host or cells: human hepatic microsomes
The assay is described as follows: 11β HSD1 cortisol radioimmunoassay (RIA) with human hepatic microsomes. Type of assay: biochemical. The conditions noted are these: read-out: % inhibition of Human 11βHSD1 @ 10 μM. On the procedure:
Biological Assay Development Using Human 11β-Hydroxysteroid Dehydrogenase Type 1. Standard Operating Procedure for the 11β-Hydroxysteroid Dehydrogenase Type 1 Cortisol Radioimmunoassay. 11β HSD1 Cortisol RIA
Enzyme assay buffer: 30 mM Tris-HCL, pH 7.2 containing 1 mM EDTA
Antibody binding buffer: 50 mM Tris-HCL, pH 8, containing 0.1 M NaCl and 0.1% gelatin
Dilute into assay buffer 1 in 25. Also dilute neat DMSO 1 in 25 into assay buffer for controls.
Dilute this 1 in 50 into assay buffer.
Prepare NADPH as a 1.8 mg/ml solution in assay buffer.
Mix these 3 solutions 1:1:1 to make a solution of sufficient volume for 25 μl additions to each sample. Add 0.5 μCi tritiated cortisone per 25 μl and mix the solution well.
Microsome preparation: Dilute stock 20 mg/ml solution 1 in 100 with assay buffer.
Dextran coated charcoal preparation: Make a 20 mg/ml solution in antibody binding buffer and chill on ice.
Enzyme assay: To a u-bottom polypropylene 96 well plate add:
25 μl compound dilution or diluted DMSO to controls, NSB's and blanks
10 μl 1 mM GA in DMSO (enzyme stop solution) to blanks
25 μl substrate mixture to all samples
50 μl diluted microsomes to all samples
Incubate plate for 30 min at 37° C. shaking
Add 10 μl enzyme stop solution to all wells except the blanks
Add 100 μl antibody solution to all wells except the NSB's, add antibody binding buffer to these wells
Incubate at 37° C. for 1 h
Chill plate on ice for 15 min
Add 50 μl/well charcoal solution and mix with an 8-channel pipette (4-5 aspirations)
Centrifuge at 4° C., 2000×g for 15 min
Transfer 100 μl supernatant into an Optiplate, also add 25 μl substrate mixture to 2 empty wells to indicate counting efficiency
Add 200 μl Microscint-40 to all wells and count on a Topcount
The 11β HSD1 enzyme assay was carried out following the standard operating procedure described above in u-bottom polypropylene 96 well plates or 1.5 ml Eppendorf tubes as indicated for each experiment. Subsequent to stopping the enzyme reaction, 100 μl antibody prepared in buffer 3 unless otherwise indicated was added to test samples and 100 μl buffer 3 was added to the NSB samples. The samples were incubated for 1 hour at 37° C. and the chilled on ice for 15 mins. Dextran coated charcoal (50 μl/sample) prepared to the indicated concentration in buffer 3 was added and the samples were mixed (vortex for tubes and aspiration 5 times with an 8-channel pipette for 96 well plates) and chilled for a further 10 min. The samples were centrifuged at 2000×g for 15 min at 4° C. to pellet the charcoal. Aliquots of the supernatant (100 μl) were transferred to an Optiplate and counted on the Topcount in 150-200 μl Microscint 40. In some experiments, aliquots of supernatant were transferred to scintillation vials and counted on the Tricarb LSC in 5 ml Ultima Gold scintillant.
Substrate saturation was examined. The enzyme assay was carried out exactly described in the methods section, in Buffer 3 with 10 μg/well microsomal protein and with [cold cortisone] as indicated. [3H]-cortisone was 0.5 μCi/sample throughout. The reaction was stopped after 30 min by the addition of 10 μl stop solution. The RIA was carried out exactly as indicated in the methods section.
It is reported that DMSO can both increase and reduce microsomal enzyme activity, depending on the concentration, presumably due to effects on the microsomal membranes.
For `Cc1c(Cl)cccc1S(=O)(=O)N(C)c1ccc2c(c1)sc(=O)n2C` [compound 831], the inhibition at 10 µM was 28%.

Turning to `Cc1c(Cl)cccc1S(=O)(=O)Nc1ccc2nc(C)n(C)c2c1` [compound 975], the inhibition at 10 µM is 45%.

For `Cc1c(Cl)cccc1S(=O)(=O)Nc1ccc2c(c1)nc(C)n2C` [compound 976], the inhibition at 10 µM was found to be 110%.

As to `CCOC(=O)Cn1c(C)nc2ccc(NS(=O)(=O)c3cccc(Cl)c3C)cc21` [compound 977], the inhibition at 10 µM turned out to be 61%.

For the compound `CCOC(=O)Cn1c(C)nc2cc(NS(=O)(=O)c3cccc(Cl)c3C)ccc21` [compound 978], the inhibition at 10 µM worked out at 60%.

As for `Cc1c(Cl)cccc1S(=O)(=O)Nc1ccc2[nH]ccc2c1` [compound 981], the inhibition at 10 µM worked out at 40%.

Regarding `Cc1c(Cl)cccc1S(=O)(=O)Nc1ccc2cc[nH]c2c1` [compound 982], the inhibition at 10 µM turned out to be 53%.

For `CC(=O)N1CCc2cc(NS(=O)(=O)c3cccc(Cl)c3C)ccc21` [compound 984], the inhibition at 10 µM amounted to 73%.

Consider `Cc1nc2cc(NS(=O)(=O)c3cccc(Cl)c3C)ccc2[nH]1` [compound 985], for which the inhibition at 10 µM was 61%.

For the compound `CCOC(=O)c1cc2cc(NS(=O)(=O)c3cccc(Cl)c3C)ccc2[nH]1` [compound 986], the inhibition at 10 µM came out at 65%.

Regarding `CCN1CCc2cc(NS(=O)(=O)c3cccc(Cl)c3C)ccc21` [compound 987], the inhibition at 10 µM is 62%.

As to `COc1ccc2nc(C)sc2c1NS(=O)(=O)c1cccc(Cl)c1C` [compound 989], the inhibition at 10 µM was 45%.

As for `Cc1nc2c(Cl)c(N(S(=O)(=O)c3cccc(Cl)c3C)S(=O)(=O)c3cccc(C)c3Cl)ccc2s1` [compound 991], the inhibition at 10 µM was 51%.

For `Cc1nc2c(Cl)c(NS(=O)(=O)c3cccc(Cl)c3C)ccc2s1` [compound 992], the inhibition at 10 µM was determined as 61%.

Consider `CCCc1ccc(S(=O)(=O)Nc2ccc3sc(C)nc3c2Cl)cc1` [compound 994], for which the inhibition at 10 µM came out at 83%.

With `CCCc1ccc(S(=O)(=O)N(c2ccc3sc(C)nc3c2Cl)S(=O)(=O)c2ccc(CCC)cc2)cc1` [compound 995], the inhibition at 10 µM came out at 68%.

As to `Cc1nc2c(NS(=O)(=O)c3cccc(Cl)c3C)c(C)ccc2s1` [compound 996], the inhibition at 10 µM was 63%.

Consider `Cc1nc2cc(C)c(N(S(=O)(=O)c3cccc(Cl)c3C)S(=O)(=O)c3cccc(Cl)c3C)cc2s1` [compound 997], for which the inhibition at 10 µM worked out at 51%.

On to `Cc1nc2cc(C)c(NS(=O)(=O)c3cccc(Cl)c3C)cc2s1` [compound 998], for which the inhibition at 10 µM was found to be 58%.

With `Cc1nc2cc(C)c(NS(=O)(=O)c3cc(Cl)ccc3Cl)cc2s1` [compound 999], the inhibition at 10 µM worked out at 55%.

Turning to `Cc1nc2c(Cl)c(NS(=O)(=O)c3cccc(Cl)c3C)c(Cl)cc2s1` [compound 1017], the inhibition at 10 µM was determined as 60%.

With `Cc1[nH]c2ccc(NS(=O)(=O)c3cccc(Cl)c3C)cc2c1C` [compound 1018], the inhibition at 10 µM is 66%.

Regarding `Cc1[nH]c2ccc(NS(=O)(=O)c3cc(Cl)ccc3Cl)cc2c1C` [compound 1019], the inhibition at 10 µM was determined as 61%.

Turning to `CCCc1ccc(S(=O)(=O)Nc2ccc3[nH]c(C)c(C)c3c2)cc1` [compound 1020], the inhibition at 10 µM amounted to 64%.

With `Cc1nc2ccc(C)c(NS(=O)(=O)c3cccc(Cl)c3C)c2s1` [compound 1021], the inhibition at 10 µM came to 54%.

On to `Cc1nc2cc(CNS(=O)(=O)c3cccc(Cl)c3C)ccc2s1` [compound 1029], for which the inhibition at 10 µM came out at 78%.

Turning to `Cc1nc2cc(CN(Cc3ccc4sc(C)nc4c3)S(=O)(=O)c3cccc(Cl)c3C)ccc2s1` [compound 1030], the inhibition at 10 µM was found to be 61%.

A word on the inhibition: it is the relative decrease from the control value, in per cent.
